Values quoted from earlier work, collected in patent publication US8603436B2, “Methods and compositions for targeted drug delivery” (priority 2000, dated 2013).
Like-named read-outs stand apart in the source and are kept apart here. Square brackets hold non-standard residues; d marks the D form. Peptide text beside a SMILES is read from it. * marks the point of attachment. X1 = NCCCC[C@H](NC(=O)[C@H](CS)NC(=O)[C@H](CCCCN)NC(=O)[C@@H](N)CNC(=O)C*)C(N)=O; NMeF = CN[C@@H](Cc1ccccc1)C(=O)O; hCys = N[C@@H](CCS)C(=O)O

Columns and labels:
tumor [1] = conditions: in vivo
[2] = system: ssr subtypes present in rat pancreas carcinoma membranes; conditions: free (unlabeled) peptide
glioblastoma cells = conditions: in vitro
tumor [3] = conditions: tumor models and individual patients

## boronated protoporphyrin [BOPP]
lysosomes
  subcellular accumulation: accumulate in lysosomes, but not in mitochondria or the nucleus

## beta-5-o-carboranyl-2′-deoxyuridine [D-CDU]
Tumor [1]
  tumor enrichment factor: ~100

## CC(C)[C@@H]1NC(=O)[C@H](CCCCN)NC(=O)[C@@H](Cc2c[nH]c3ccccc23)NC(=O)[C@H](Cc2ccc(O)cc2)NC(=O)[C@H](Cc2ccccc2)N(C)C(=O)[C@H](CCSCC(=O)NC[C@H](N)C(=O)N[C@@H](CCCCN)C(=O)N[C@@H](CS)C(=O)N[C@@H](CCCCN)C(N)=O)NC1=O [depreotide] (cyclo([hCys](X1)[NMeF]Y[dW]KV))
[2]
  apparent affinity of the free peptide compared with octreotide: one order of magnitude lower

## N[C@@H](Cc1ccc(B(O)O)cc1)C(=O)O [BPA, p-boronophenylalanine]
Glioblastoma cells
  concentration in lysosomes relative to cytosolic concentration: 100 fold lower
  concentration in microsomes relative to cytosolic concentration: 125 fold lower
  concentration in nuclei relative to cytosolic concentration: 80 fold lower
  time to maximum uptake into whole glioblastoma cells: 1 h
Glioblastoma cells; at maximum uptake
  cytosolic concentration: 250 ng per million of glioma cells
Tumor [3]
  tumor enrichment factor: ≤ 3
